Laboratory results as given in article PMC12150326 (The Journal of Organic Chemistry, 2025).
Read-outs that look alike come from different tables or passages of the source.

Key:
Assay type in all cases: cell-based, human
NCI-H460 = tested on: NCI-H460
Procedure, shortened: (§1)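 Tested in five doses (top 100 μM, lowest 0.01 μM) within the 60 Cell Screen; COMPARE used TGI responses relative to known tubulin inhibitors.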

786-0 = tested on: 786-0
Procedure, shortened: as §1

SK-MEL-28 = tested on: SK-MEL-28
Procedure, shortened: as §1

MOLT-4 = tested on: MOLT-4
Procedure, shortened: as §1

SNB-19 = tested on: SNB-19
Procedure, shortened: (§2)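 First, compounds went into the NCI-60 cell panel. Next, they were dosed at 0.01, 0.1, 1, 10 and 100 μM. Finally, TGI levels fed a COMPARE analysis against prior tubulin-inhibitor data.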

NCI/ADR-RES = tested on: NCI/ADR-RES
Procedure, shortened: as §1

HCT-15 = tested on: HCT-15
Procedure, shortened: as §1

ACHN = tested on: ACHN
Procedure, shortened: as §2

M14 = tested on: M14
Procedure, shortened: as §1

HCT-116 = tested on: HCT-116
Procedure, shortened: as §1

OVCAR-5 = tested on: OVCAR-5
Procedure, shortened: as §1

NCI-H522 = tested on: NCI-H522
Procedure, shortened: as §1

SK-OV-3 = tested on: SK-OV-3
Procedure, shortened: as §1

UACC-257 = tested on: UACC-257
Procedure, shortened: as §1

CCRF-CEM = tested on: CCRF-CEM
Procedure, shortened: as §2

SF-295 = tested on: SF-295
Procedure, shortened: as §1

LOX IMVI = tested on: LOX IMVI
Procedure, shortened: as §2

MALME-3M = tested on: MALME-3M
Procedure, shortened: as §1

NCI-H23 = tested on: NCI-H23
Procedure, shortened: as §1

MCF7 = tested on: MCF7
Procedure, shortened: as §1

HS 578T = tested on: HS 578T
Procedure, shortened: as §1

HOP-62 = tested on: HOP-62
Procedure, shortened: as §2

SN12C = tested on: SN12C
Procedure, shortened: as §1

HOP-92 = tested on: HOP-92
Procedure, shortened: as §1

SK-MEL-2 = tested on: SK-MEL-2
Procedure, shortened: as §1

TK-10 = tested on: TK-10
Procedure, shortened: as §2

U251 = tested on: U251
Procedure, shortened: as §1

COLO 205 = tested on: COLO 205
Procedure, shortened: as §1

COc1cc(C)c(-c2ccc(=O)c(OC)cc2C)c(OC)c1OC (single isomer, unassigned) [(aS)-iso-6]
Log10GI50 (NCI-H460): -4.50 Molar | Log10LC50 (NCI-H460): > -4.00 Molar | Log10TGI (NCI-H460): > -4.00 Molar | GI50 (NCI-H460; Homo sapiens): 31.6 µM | Log10GI50 (NCI-H460; […]): -4.5 Molar | Log10GI50 (786-0): -4.33 Molar | Log10LC50 (786-0): > -4.00 Molar | Log10TGI (786-0): > -4.00 Molar | GI50 (786-0; Homo sapiens): 46.8 µM | Log10GI50 (786-0; […]): -4.33 Molar | Log10GI50 (SK-MEL-28): > -4.00 Molar | Log10LC50 (SK-MEL-28): > -4.00 Molar | Log10TGI (SK-MEL-28): > -4.00 Molar | Log10GI50 (MOLT-4): -4.44 Molar | Log10LC50 (MOLT-4): > -4.00 Molar | Log10TGI (MOLT-4): > -4.00 Molar | GI50 (MOLT-4; Homo sapiens): 36.3 µM | Log10GI50 (MOLT-4; […]): -4.44 Molar | Log10GI50 (SNB-19): -4.53 Molar | Log10LC50 (SNB-19): > -4.00 Molar | Log10TGI (SNB-19): > -4.00 Molar | GI50 (SNB-19; Homo sapiens): 5.37 µM | Log10GI50 (SNB-19; […]): -5.27 Molar | Log10GI50 (NCI/ADR-RES): -4.55 Molar | Log10LC50 (NCI/ADR-RES): > -4.00 Molar | Log10TGI (NCI/ADR-RES): > -4.00 Molar | GI50 (NCI/ADR-RES; Homo sapiens): 28.2 µM | Log10GI50 (NCI/ADR-RES; […]): -4.55 Molar | Log10GI50 (HCT-15): -4.89 Molar | Log10LC50 (HCT-15): > -4.00 Molar | Log10TGI (HCT-15): > -4.00 Molar | GI50 (HCT-15; Homo sapiens): 12.9 µM | Log10GI50 (HCT-15; […]): -4.89 Molar | Log10GI50 (ACHN): -4.07 Molar | Log10LC50 (ACHN): > -4.00 Molar | Log10TGI (ACHN): > -4.00 Molar | GI50 (ACHN; Homo sapiens): 85.1 µM | Log10GI50 (ACHN; […]): -4.07 Molar | Log10GI50 (M14): -4.76 Molar | Log10LC50 (M14): > -4.00 Molar | Log10TGI (M14): > -4.00 Molar | GI50 (M14; Homo sapiens): 17.4 µM | Log10GI50 (M14; […]): -4.76 Molar | Log10GI50 (HCT-116): -4.60 Molar | Log10LC50 (HCT-116): > -4.00 Molar | Log10TGI (HCT-116): > -4.00 Molar | GI50 (HCT-116; Homo sapiens): 25.1 µM | Log10GI50 (HCT-116; […]): -4.6 Molar | Log10GI50 (OVCAR-5): -4.38 Molar | Log10LC50 (OVCAR-5): > -4.00 Molar | Log10TGI (OVCAR-5): > -4.00 Molar | GI50 (OVCAR-5; Homo sapiens): 41.7 µM | Log10GI50 (OVCAR-5; […]): -4.38 Molar | Log10GI50 (NCI-H522): -4.69 Molar | Log10LC50 (NCI-H522): > -4.00 Molar | Log10TGI (NCI-H522): -4.15 Molar | GI50 (NCI-H522; Homo sapiens): 20.4 µM | Log10GI50 (NCI-H522; […]): -4.69 Molar | Log10GI50 (SK-OV-3): -4.57 Molar | Log10LC50 (SK-OV-3): > -4.00 Molar | Log10TGI (SK-OV-3): > -4.00 Molar | GI50 (SK-OV-3; Homo sapiens): 26.9 µM | Log10GI50 (SK-OV-3; […]): -4.57 Molar | Log10GI50 (UACC-257): -4.15 Molar | Log10LC50 (UACC-257): > -4.00 Molar | Log10TGI (UACC-257): > -4.00 Molar | GI50 (UACC-257; Homo sapiens): 70.8 µM | Log10GI50 (UACC-257; […]): -4.15 Molar | Log10GI50 (CCRF-CEM): -4.53 Molar | Log10LC50 (CCRF-CEM): > -4.00 Molar | Log10TGI (CCRF-CEM): > -4.00 Molar | GI50 (CCRF-CEM; Homo sapiens): 29.5 µM | Log10GI50 (CCRF-CEM; […]): -4.53 Molar | Log10GI50 (SF-295): -4.64 Molar | Log10LC50 (SF-295): > -4.00 Molar | Log10TGI (SF-295): > -4.00 Molar | GI50 (SF-295; Homo sapiens): 25.7 µM | Log10GI50 (SF-295; […]): -4.59 Molar | Log10GI50 (LOX IMVI): -5.18 Molar | Log10LC50 (LOX IMVI): > -4.00 Molar | Log10TGI (LOX IMVI): > -4.00 Molar | GI50 (LOX IMVI; Homo sapiens): 6.61 µM | Log10GI50 (LOX IMVI; […]): -5.18 Molar | Log10GI50 (MALME-3M): -4.42 Molar | Log10LC50 (MALME-3M): > -4.00 Molar | Log10TGI (MALME-3M): > -4.00 Molar | Log10GI50 (NCI-H23): -4.33 Molar | Log10LC50 (NCI-H23): > -4.00 Molar | Log10TGI (NCI-H23): > -4.00 Molar | GI50 (NCI-H23; Homo sapiens): 46.8 µM | Log10GI50 (NCI-H23; […]): -4.33 Molar | Log10GI50 (MCF7): -4.60 Molar | Log10LC50 (MCF7): > -4.00 Molar | Log10TGI (MCF7): > -4.00 Molar | GI50 (MCF7; Homo sapiens): 25.1 µM | Log10GI50 (MCF7; […]): -4.6 Molar | Log10GI50 (HS 578T): -4.80 Molar | Log10LC50 (HS 578T): > -4.00 Molar | Log10TGI (HS 578T): -4.19 Molar | GI50 (HS 578T; Homo sapiens): 15.8 µM | Log10GI50 (HS 578T; […]): -4.8 Molar | Log10GI50 (HOP-62): -4.46 Molar | Log10LC50 (HOP-62): > -4.00 Molar | Log10TGI (HOP-62): > -4.00 Molar | GI50 (HOP-62; Homo sapiens): 34.7 µM | Log10GI50 (HOP-62; […]): -4.46 Molar | Log10GI50 (SN12C): -4.42 Molar | Log10LC50 (SN12C): > -4.00 Molar | Log10TGI (SN12C): > -4.00 Molar | GI50 (SN12C; Homo sapiens): 38 µM | Log10GI50 (SN12C; […]): -4.42 Molar | Log10GI50 (HOP-92): -4.99 Molar | Log10LC50 (HOP-92): > -4.00 Molar | Log10TGI (HOP-92): > -4.00 Molar | GI50 (HOP-92; Homo sapiens): 10.2 µM | Log10GI50 (HOP-92; […]): -4.99 Molar | Log10GI50 (SK-MEL-2): -4.69 Molar | Log10LC50 (SK-MEL-2): > -4.00 Molar | Log10TGI (SK-MEL-2): > -4.00 Molar | GI50 (SK-MEL-2; Homo sapiens): 20.4 µM | Log10GI50 (SK-MEL-2; […]): -4.69 Molar | Log10GI50 (TK-10): > -4.00 Molar | Log10LC50 (TK-10): > -4.00 Molar | Log10TGI (TK-10): > -4.00 Molar | GI50 (TK-10; Homo sapiens): > 100 µM | Log10GI50 (TK-10; […]): > -4 Molar | Log10GI50 (U251): -4.51 Molar | Log10LC50 (U251): > -4.00 Molar | Log10TGI (U251): > -4.00 Molar | GI50 (U251; Homo sapiens, U-251): 18.8 µM | Log10GI50 (U251; […]): -4.725 Molar | Log10GI50 (COLO 205): -4.66 Molar | Log10LC50 (COLO 205): > -4.00 Molar | Log10TGI (COLO 205): -4.23 Molar | GI50 (COLO 205; Homo sapiens): 21.9 µM | Log10GI50 (COLO 205; […]): -4.66 Molar
